{"source": "patent US6358885B1", "about": "“Substituted phenylheterocyclic herbicides” (Mississippi State University, priority 1992, dated 2002)", "key": {"barnyardgrass": {"system": "barnyardgrass", "assay": "Test C flood test plant response rating 0 to 100", "format": "in vivo, Echinochloa crus-galli", "excerpt": "(§1) The compounds evaluated in this test were formulated in a non-phytoxic solvent and applied to the soil surface before plant seedlings emerged (preemergence application), to water that covered the soil surface (flood application), and to plants that were in the one-to-four leaf stage (postemergence application). A sandy loam soil was used for the preemergence and postemergence tests, while a silt loam soil was used in the flood test. Water depth was approximately 2.5 cm for the flood test and was maintained at this level for the duration of the test. Plant species in the preemergence and postemergence tests consisted of barley (Hordeum vulgare), bedstraw (Galium aparine), blackgrass (Alopecurus myosuroides), chickweed (Stellaria media), corn (Zea mays), cotton (Gossypium hirsutum), crabgrass (Digitaria sanguinalis), downy brome (Bromus tectorum), giant foxtail (Setaria faberii), lambsquarters (Chenopodium album), morningglory (Ipomoea hederacea), pigweed ([…]), rape (Brassica napus), ryegrass (Lolium multiflorum), sorghum (Sorghum bicolor), soybean (Glycine max), speedwell (Veronica persica), sugar beet (Beta vulgaris), velvetleaf (Abutilon theophrasti), wheat (Triticum aestivum), wild buckwheat (Polygonum convolvulus), and wild oat (Avena fatua). All plant species were planted one day before application of the compound for the preemergence portion-of this test. Plantings of these species were adjusted to produce plants of appropriate size for the post-emergence portion of the test. […] All plant species were grown using normal greenhouse practices. Visual evaluations of injury expressed on treated plants, when compared to untreated controls, were recorded approximately fourteen to twenty one days after application of the test compound. […] A dash (-) response means no test result."}, "rice": {"system": "rice", "assay": "Test B preemergence/postemergence greenhouse plant response rating 0 to 10", "format": "in vivo, Oryza sativa", "details": "0 to 10 scale", "how_it_was_run": "(§2)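 Postemergence treatment of plants two to eighteen cm tall ran alongside preemergence treatment of planted seed, each using compound in a non-phytotoxic solvent.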"}, "wild buckwheat [1]": {"system": "wild buckwheat", "assay": "Test B preemergence/postemergence greenhouse plant response rating 0 to 10", "format": "in vivo, Polygonum convolvulus", "details": "0 to 10 scale", "how_it_was_run": "as §2"}, "downy brome": {"system": "downy brome", "assay": "Test C preemergence/postemergence greenhouse plant response rating 0 to 100", "format": "in vivo, Bromus tectorum", "details": "for Plant response rating Downy Brome: 62 g/ha, 0 to 100 scale", "excerpt": "as §1"}, "blackgrass": {"system": "blackgrass", "assay": "Test C preemergence/postemergence greenhouse plant response rating 0 to 100", "format": "in vivo, Alopecurus myosuroides", "details": "for Plant response rating, Blackgrass: 62 g/ha, 0 to 100 scale", "excerpt": "as §1"}, "wild buckwheat [2]": {"system": "wild buckwheat", "assay": "Test C preemergence/postemergence greenhouse plant response rating 0 to 100", "format": "in vivo, Polygonum convolvulus", "excerpt": "as §1"}, "wheat": {"system": "wheat", "assay": "Test B preemergence/postemergence greenhouse plant response rating 0 to 10", "format": "in vivo, Triticum aestivum", "details": "0 to 10 scale", "how_it_was_run": "as §2"}, "soybean": {"system": "soybean", "assay": "Test B preemergence/postemergence greenhouse plant response rating 0 to 10", "format": "in vivo, Glycine max", "details": "0 to 10 scale", "how_it_was_run": "as §2"}, "lambsquarters": {"system": "lambsquarters", "assay": "Test B preemergence/postemergence greenhouse plant response rating 0 to 10", "format": "in vivo, Chenopodium album", "details": "0 to 10 scale", "how_it_was_run": "as §2"}, "sorghum": {"system": "sorghum", "assay": "Test C preemergence/postemergence greenhouse plant response rating 0 to 100", "format": "in vivo, Sorghum bicolor", "excerpt": "as §1"}, "wild oat": {"system": "wild oat", "assay": "Test B preemergence/postemergence greenhouse plant response rating 0 to 10", "format": "in vivo, Avena fatua", "details": "0 to 10 scale", "how_it_was_run": "as §2"}, "sugar beet": {"system": "sugar beet", "assay": "Test C preemergence/postemergence greenhouse plant response rating 0 to 100", "format": "in vivo, Beta vulgaris", "excerpt": "as §1"}, "[3]": {"details": "POSTEMERGENCE, 62 g/ha, 0 to 100 scale"}}, "data": [{"smiles": "CC(C)Oc1cc(-c2nn3c(c2Br)CCCC3)c(F)cc1Cl", "note": "[Compound 38]", "values": [{"measurement": "Plant response rating (0 to 100), Barnyardgrass 2", "setting": "barnyardgrass; POSTEMERGENCE section, flood test, Rate 1 g/ha", "value": 10}, {"measurement": "Plant response rating (0 to 100), Barnyardgrass 2", "setting": "barnyardgrass; Rate 4 g/ha, under POSTEMERGENCE head (flood test species)", "value": 20}, {"measurement": "Plant response rating (0 to 100), Barnyardgrass 2", "setting": "barnyardgrass; Rate 16 g/ha, under POSTEMERGENCE head (flood test species)", "value": 75}, {"measurement": "Plant response rating Barnyardgrass 2", "setting": "barnyardgrass; flood test species listed under POSTEMERGENCE, 62 g/ha, 0 to 100 scale", "value": 100}, {"measurement": "Plant response rating, Rice", "setting": "rice; POSTEMERGENCE, Rate 50 g/ha", "value": 5}, {"measurement": "Plant response rating, Rice", "setting": "rice; PREEMERGENCE, Rate 50 g/ha", "value": 0}, {"measurement": "Plant response rating, Rice", "setting": "rice; Rate 200 g/ha, POSTEMERGENCE", "value": 6}, {"measurement": "Plant response rating, Rice", "setting": "rice; Rate 200 g/ha, PREEMERGENCE", "value": 2}, {"measurement": "Plant response rating, Wild buckwheat", "setting": "wild buckwheat [1]; POSTEMERGENCE, Rate 50 g/ha", "value": 10}, {"measurement": "Plant response rating, Wild buckwheat", "setting": "wild buckwheat [1]; PREEMERGENCE, Rate 50 g/ha", "value": 8}, {"measurement": "Plant response rating, Wild buckwheat", "setting": "wild buckwheat [1]; Rate 200 g/ha, POSTEMERGENCE", "value": 10}, {"measurement": "Plant response rating, Wild buckwheat", "setting": "wild buckwheat [1]; Rate 200 g/ha, PREEMERGENCE", "value": 10}, {"measurement": "Plant response rating Downy Brome", "setting": "downy brome; POSTEMERGENCE", "value": 40}, {"measurement": "Plant response rating (0 to 100), Downy Brome", "setting": "downy brome; POSTEMERGENCE, Rate 1 g/ha", "value": 10}, {"measurement": "Plant response rating (0 to 100), Downy Brome", "setting": "downy brome; POSTEMERGENCE, Rate 4 g/ha", "value": 20}, {"measurement": "Plant response rating Downy Brome", "setting": "downy brome; PREEMERGENCE", "value": 0}, {"measurement": "Plant response rating (0 to 100), Downy Brome", "setting": "downy brome; PREEMERGENCE, Rate 1 g/ha", "value": 0}, {"measurement": "Plant response rating (0 to 100), Downy Brome", "setting": "downy brome; PREEMERGENCE, Rate 4 g/ha", "value": 0}, {"measurement": "Plant response rating (0 to 100), Downy Brome", "setting": "downy brome; Rate 16 g/ha, POSTEMERGENCE", "value": 30}, {"measurement": "Plant response rating (0 to 100), Downy Brome", "setting": "downy brome; Rate 16 g/ha, PREEMERGENCE", "value": 0}, {"measurement": "Plant response rating, Blackgrass", "setting": "blackgrass; POSTEMERGENCE", "value": 40}, {"measurement": "Plant response rating (0 to 100), Blackgrass", "setting": "blackgrass; POSTEMERGENCE, Rate 1 g/ha", "value": 10}, {"measurement": "Plant response rating, Blackgrass", "setting": "blackgrass; PREEMERGENCE", "value": 30}, {"measurement": "Plant response rating (0 to 100), Blackgrass", "setting": "blackgrass; PREEMERGENCE, Rate 1 g/ha", "value": 0}, {"measurement": "Plant response rating (0 to 100), Blackgrass", "setting": "blackgrass; PREEMERGENCE, Rate 4 g/ha", "value": 0}, {"measurement": "Plant response rating (0 to 100), Blackgrass", "setting": "blackgrass; Rate 4 g/ha, POSTEMERGENCE", "value": 10}, {"measurement": "Plant response rating (0 to 100), Blackgrass", "setting": "blackgrass; Rate 16 g/ha, POSTEMERGENCE", "value": 20}, {"measurement": "Plant response rating (0 to 100), Blackgrass", "setting": "blackgrass; Rate 16 g/ha, PREEMERGENCE", "value": 0}, {"measurement": "Plant response rating, Wild buckwheat", "setting": "wild buckwheat [2]; [3]", "value": 100}, {"measurement": "Plant response rating (0 to 100), Wild buckwheat", "setting": "wild buckwheat [2]; POSTEMERGENCE, Rate 1 g/ha", "value": 40}, {"measurement": "Plant response rating (0 to 100), Wild buckwheat", "setting": "wild buckwheat [2]; POSTEMERGENCE, Rate 4 g/ha", "value": 100}, {"measurement": "Plant response rating (0 to 100), Wild buckwheat", "setting": "wild buckwheat [2]; PREEMERGENCE, Rate 1 g/ha", "value": 0}, {"measurement": "Plant response rating (0 to 100), Wild buckwheat", "setting": "wild buckwheat [2]; PREEMERGENCE, Rate 4 g/ha", "value": 0}, {"measurement": "Plant response rating (0 to 100), Wild buckwheat", "setting": "wild buckwheat [2]; Rate 16 g/ha, POSTEMERGENCE", "value": 100}, {"measurement": "Plant response rating (0 to 100), Wild buckwheat", "setting": "wild buckwheat [2]; Rate 16 g/ha, PREEMERGENCE", "value": 20}, {"measurement": "Plant response rating, Wheat", "setting": "wheat; POSTEMERGENCE, Rate 50 g/ha", "value": 4}, {"measurement": "Plant response rating, Wheat", "setting": "wheat; PREEMERGENCE, Rate 50 g/ha", "value": 0}, {"measurement": "Plant response rating, Wheat", "setting": "wheat; Rate 200 g/ha, POSTEMERGENCE", "value": 6}, {"measurement": "Plant response rating, Wheat", "setting": "wheat; Rate 200 g/ha, PREEMERGENCE", "value": 2}, {"measurement": "Plant response rating, Soybean", "setting": "soybean; POSTEMERGENCE, Rate 50 g/ha", "value": 5}, {"measurement": "Plant response rating, Soybean", "setting": "soybean; PREEMERGENCE, Rate 50 g/ha", "value": 0}, {"measurement": "Plant response rating, Soybean", "setting": "soybean; Rate 200 g/ha, POSTEMERGENCE", "value": 7}, {"measurement": "Plant response rating, Soybean", "setting": "soybean; Rate 200 g/ha, PREEMERGENCE", "value": 4}, {"measurement": "Plant response rating, Lambsquarter", "setting": "lambsquarters; POSTEMERGENCE, Rate 50 g/ha", "value": 10}, {"measurement": "Plant response rating, Lambsquarter", "setting": "lambsquarters; PREEMERGENCE, Rate 50 g/ha", "value": 10}, {"measurement": "Plant response rating, Lambsquarter", "setting": "lambsquarters; Rate 200 g/ha, POSTEMERGENCE", "value": 10}, {"measurement": "Plant response rating, Lambsquarter", "setting": "lambsquarters; Rate 200 g/ha, PREEMERGENCE", "value": 10}, {"measurement": "Plant response rating, Sorghum", "setting": "sorghum; [3]", "value": 70}, {"measurement": "Plant response rating (0 to 100), Sorghum", "setting": "sorghum; POSTEMERGENCE, Rate 1 g/ha", "value": 20}, {"measurement": "Plant response rating (0 to 100), Sorghum", "setting": "sorghum; POSTEMERGENCE, Rate 4 g/ha", "value": 30}, {"measurement": "Plant response rating (0 to 100), Sorghum", "setting": "sorghum; PREEMERGENCE, Rate 1 g/ha", "value": 0}, {"measurement": "Plant response rating (0 to 100), Sorghum", "setting": "sorghum; PREEMERGENCE, Rate 4 g/ha", "value": 0}, {"measurement": "Plant response rating (0 to 100), Sorghum", "setting": "sorghum; Rate 16 g/ha, POSTEMERGENCE", "value": 60}, {"measurement": "Plant response rating (0 to 100), Sorghum", "setting": "sorghum; Rate 16 g/ha, PREEMERGENCE", "value": 10}, {"measurement": "Plant response rating, Wild oat", "setting": "wild oat; POSTEMERGENCE, Rate 50 g/ha", "value": 3}, {"measurement": "Plant response rating, Wild oat", "setting": "wild oat; PREEMERGENCE, Rate 50 g/ha", "value": 0}, {"measurement": "Plant response rating, Wild oat", "setting": "wild oat; Rate 200 g/ha, POSTEMERGENCE", "value": 5}, {"measurement": "Plant response rating, Sugar beet", "setting": "sugar beet; [3]", "value": 100}, {"measurement": "Plant response rating (0 to 100), Sugar beet", "setting": "sugar beet; POSTEMERGENCE, Rate 1 g/ha", "value": 20}, {"measurement": "Plant response rating (0 to 100), Sugar beet", "setting": "sugar beet; POSTEMERGENCE, Rate 4 g/ha", "value": 70}, {"measurement": "Plant response rating (0 to 100), Sugar beet", "setting": "sugar beet; PREEMERGENCE, Rate 1 g/ha", "value": 0}, {"measurement": "Plant response rating (0 to 100), Sugar beet", "setting": "sugar beet; PREEMERGENCE, Rate 4 g/ha", "value": 0}, {"measurement": "Plant response rating (0 to 100), Sugar beet", "setting": "sugar beet; Rate 16 g/ha, POSTEMERGENCE", "value": 100}, {"measurement": "Plant response rating (0 to 100), Sugar beet", "setting": "sugar beet; Rate 16 g/ha, PREEMERGENCE", "value": 30}]}]}
